Reference: paper PMC3950514 (mBio, 2014)

Key:
[1] = target: CnCam1 with human calcineurin (Cryptococcus neoformans, UniProt J9VTH9); experiment: malachite green phosphate release from RII phosphopeptide by human calcineurin; type: biochemical
[2] = target: C. neoformans calmodulin (Cam1) (C. neoformans); experiment: pull-down

Sequence of green fluorescent protein (GFP)-tagged C. neoformans calcineurin (Cna1-GFP) (O42773 whole entry): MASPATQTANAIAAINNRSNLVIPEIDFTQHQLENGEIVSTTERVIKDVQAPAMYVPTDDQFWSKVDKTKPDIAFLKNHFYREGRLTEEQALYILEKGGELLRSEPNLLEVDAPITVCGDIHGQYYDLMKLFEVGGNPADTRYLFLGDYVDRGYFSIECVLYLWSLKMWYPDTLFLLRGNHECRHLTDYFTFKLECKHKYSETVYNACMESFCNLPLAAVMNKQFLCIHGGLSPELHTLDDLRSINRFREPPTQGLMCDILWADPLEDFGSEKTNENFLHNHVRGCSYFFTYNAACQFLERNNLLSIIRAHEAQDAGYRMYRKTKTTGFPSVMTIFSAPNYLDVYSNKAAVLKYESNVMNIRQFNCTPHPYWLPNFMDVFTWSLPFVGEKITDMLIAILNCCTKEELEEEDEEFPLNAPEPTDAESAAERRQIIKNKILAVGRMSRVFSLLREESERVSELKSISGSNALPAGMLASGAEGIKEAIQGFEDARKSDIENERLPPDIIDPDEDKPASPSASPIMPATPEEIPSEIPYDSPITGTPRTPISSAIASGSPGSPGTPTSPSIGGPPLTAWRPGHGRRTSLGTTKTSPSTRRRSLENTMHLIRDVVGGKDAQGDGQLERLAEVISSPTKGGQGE

IC50 [1] | Compound | percent reduction of the bound amount with toremifene (20 µg/ml) against DMSO [2]
61.6 µM | CN(C)CCOc1ccc(/C(=C(/CCCl)c2ccccc2)c2ccccc2)cc1 [TOR, toremifene] | –
– | green fluorescent protein (GFP)-tagged C. neoformans calcineurin (Cna1-GFP) (from UniProt O42773 1-639) (enzyme) | 45%
